# Earlier results in patent US5382572A, “Alkyl and acyl substituted quinolines” (Schering Corporation, priority 1993, dated 1995).
# How the values were obtained:
# herpes virus infections = conditions: mammals; Haines et al.; cited from earlier work
# HSV-1 = conditions: cell culture; Haines et al., U.S. Pat. No. 4,757,088; cited from earlier work
# [1] = tested on: HSV oral and genital lesions; conditions: humans; Haines et al.; cited from earlier work
# HSV-2 = conditions: cell culture; Haines et al., U.S. Pat. No. 4,757,088; cited from earlier work
compound,measurement,setting,value
"CCN(CC)CC(=O)Nc1c(C)cccc1C [lidocaine, 2-(diethylamino)-N-(2,6-dimethylphenyl)acetamide]",treatment of herpes virus infections,herpes virus infections,is able to treat herpes virus infections of mammals
same,antiviral activity against HSV-1,HSV-1,is an antiviral agent in cell culture against HSV-1 and HSV-2
same,treatment of HSV oral and genital lesions,[1],particularly effective in the treatment of HSV oral and genital lesions in humans
same,antiviral activity against HSV-2,HSV-2,is an antiviral agent in cell culture against HSV-1 and HSV-2
